Columns and labels:
Format in all cases: physicochemical
[1] = Maximum absorption wavelength of the absorption spectrum in ethyl acetate solution; settings: for Maximum Absorption Wavelength: concentration 1×10^−6 mol/L, optical path length 10 mm; for λmax: stated in the production example
Excerpt: The maximum absorption wavelength of the absorption spectrum in an ethyl acetate solution (concentration 1×10^−6 mol/L; optical path length, 10 mm) of these compounds is shown in Table 1 below.

[2] = Dye solubility when preparing the coating composition for dye-donating layer formation (ink sheet); set-up: key: A (soluble easily); B (soluble); C (soluble but hardly); settings: dye in coating composition with polyvinylbutyral resin, methyl ethyl ketone/toluene (1/1); three ranks
Excerpt: A polyester film (Lumirror, Toray's trade name) having a thickness of 6.0 μm and coated with a thermoplastic acrylic resin (thickness, 1 μm) for heat-resistant lubrication on the back thereof was used as a support. The following coating composition for dye-donating layer formation was applied onto the surface of the support film, in a mode of wire bar coating, thereby forming a coating layer having a dry thickness of 1 μm thereon to give an ink sheet 1.
(Coating Composition for Dye-donating Layer Formation)
Next, ink sheets 2 to 5 of the invention and comparative ink sheets 6 to 8 were formed in the same manner as that for the ink sheet 1 but using the dye shown in Table 2 below in place of Compound (1). In this process, the dye solubility was evaluated in three ranks; A (soluble easily), B (soluble), C (soluble but hardly).

[3] = Light stability (lightfastness) of thermal transfer images under Xe light; settings: Xe light (17000 lux) for 7 days; density retentiveness ratio to original reflection density 1.0; three ranks
Procedure: Next, the recorded thermal transfer image-receiving materials were exposed to an Xe light (17000 lux) for 7 days and tested for the light stability (lightfastness) of the images. After the exposure, the status A reflection density of the part originally having a status A reflection density of 1.0 was measured, and the image stability was indicated by the density retentiveness ratio (percentage) to the original reflection density 1.0 before exposure. The samples were evaluated in three ranks, A (from 80% to less than 100%), B (from 60% to less than 80%), and C (less than 60%).

Row | Structure (SMILES) | Maximum Absorption Wavelength [1] | Solubility [2] | Lightfastness [3] | λmax [1]
1 | CC(C)(C)c1nn(-c2ccccc2)c(N)c1/N=N/c1ccc([N+](=O)[O-])cc1 [Comparative Dye 1, reference compound] |  | B | B (B (from 60% to less than 80%)) | 
2 | CCN(CC)C(=O)n1c(/N=N/c2ccc(N(CC)CC)cc2NC(C)=O)nc(C#N)c1C#N [Comparative Dye 2, reference compound] |  | A | B (B (from 60% to less than 80%)) | 
3 | Cn1nc(C(C)(C)C)c(/N=N/c2nc(C#N)c(C#N)[nH]2)c1N [Comparative Dye 3, reference compound] |  | B | C (C (less than 60%)) | 432 nm
4 | CCN(CCOc1ccc(C2CCCCC2)cc1)c1ccc(C=C(C#N)C#N)c(C)c1 [Comparative Dye 4, reference compound] |  | A | C (C (less than 60%)) | 
5 | CCCCN(CCCC)C(=O)c1ccc2c(c1)C(=O)C(c1nc3ccc(C(C)C)cc3cc1O)C2=O (stereo not drawn) [Comparative Dye 5, reference compound] |  | B | A (A (from 80% to less than 100%)) | 

More lines, now with the values ahead:

Row | Maximum Absorption Wavelength [1] | Solubility [2] | Lightfastness [3] | λmax [1] | Structure (SMILES)
6 | 439 nm | A | A (A (from 80% to less than 100%)) |  | CN(C)C(=O)n1c(/N=N/c2c(C(C)(C)C)nn(C)c2N)nc(C#N)c1C#N [(2)]
7 | 452 nm | A | A (A (from 80% to less than 100%)) |  | CC(=O)n1c(/N=N/c2c(C(C)(C)C)nn(C)c2N)nc(C#N)c1C#N [(3)]
8 | 454 nm | A | A (A (from 80% to less than 100%)) |  | Cn1nc(C(C)(C)C)c(/N=N/c2nc(C#N)c(C#N)n2C(=O)c2ccccc2)c1N [(4)]
9 | 451 nm | A | A (A (from 80% to less than 100%)) |  | COC(=O)n1c(/N=N/c2c(C(C)(C)C)nn(C)c2N)nc(C#N)c1C#N [(5)]
10 | 438 nm | A | A (A (from 80% to less than 100%)) | 438 nm | CCN(CC)C(=O)n1c(/N=N/c2c(C(C)(C)C)nn(C)c2N)nc(C#N)c1C#N [Compound (1)]

— patent publication US8158317B2, “Azo dye compound, coloring composition, ink sheet for thermal transfer recording, thermal transfer recording method, color toner, ink for inkjet, and color filter” (FUJIFILM Corporation, priority 2006, dated 2012)
